# In patent publication US5773423A (priority 1994, dated 1998):
# Counter-ions that a name gives are not always drawn. Like-named read-outs stand apart in the source and are kept apart here.
# Key:
# [1] = biological target: T1, A1 receptors from rat brain membranes (Rattus norvegicus, UniProt P25099); experiment: biochemical; assay type: binding
# T1 construct: Rat cerebral cortical and striatal membranes were prepared; from tissue; host or cells: rat brain (cerebral cortical) membranes
# T1 sequence (P25099 1-326): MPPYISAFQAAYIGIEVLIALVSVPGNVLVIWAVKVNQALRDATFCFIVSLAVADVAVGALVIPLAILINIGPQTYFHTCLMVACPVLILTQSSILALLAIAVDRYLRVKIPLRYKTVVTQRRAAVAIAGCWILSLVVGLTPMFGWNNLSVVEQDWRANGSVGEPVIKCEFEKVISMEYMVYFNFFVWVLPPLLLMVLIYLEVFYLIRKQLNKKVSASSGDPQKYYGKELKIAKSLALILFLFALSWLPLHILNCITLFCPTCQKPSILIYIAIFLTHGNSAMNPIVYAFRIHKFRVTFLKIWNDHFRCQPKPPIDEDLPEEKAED
# [2] = biological target: T2, A2 receptors from rat striatal membranes (Rattus norvegicus, UniProt P30543); experiment: Radioligand binding at A2 (A2a) receptors, displacement of [3H]CGS 21680 (or [3H]NECA with 50 nM CPA) from rat striatal membranes
# T2 construct: Rat cerebral cortical and striatal membranes were prepared; from tissue; host or cells: rat striatal membranes
# [3] = rat brain membranes, displacement of [3H]PIA (or [3H]CHA), read-out: A1 affinity Ki
# [4] = rat striatal membranes, displacement of [3H]CGS 21680 (or [3H]NECA + 50 nM CPA), read-out: A2 affinity Ki
# [5] = read-out: A1 percent displacement
# [6] = read-out: A2 percent displacement
# [7] = at 100 μM, read-out: A1 percent displacement
# [8] = at 100 μM, read-out: A2 percent displacement
# [9] = Table 4, [3H]PIA, rat brain membranes, read-out: Ki (A1)
# T2 sequence (P30543 whole entry): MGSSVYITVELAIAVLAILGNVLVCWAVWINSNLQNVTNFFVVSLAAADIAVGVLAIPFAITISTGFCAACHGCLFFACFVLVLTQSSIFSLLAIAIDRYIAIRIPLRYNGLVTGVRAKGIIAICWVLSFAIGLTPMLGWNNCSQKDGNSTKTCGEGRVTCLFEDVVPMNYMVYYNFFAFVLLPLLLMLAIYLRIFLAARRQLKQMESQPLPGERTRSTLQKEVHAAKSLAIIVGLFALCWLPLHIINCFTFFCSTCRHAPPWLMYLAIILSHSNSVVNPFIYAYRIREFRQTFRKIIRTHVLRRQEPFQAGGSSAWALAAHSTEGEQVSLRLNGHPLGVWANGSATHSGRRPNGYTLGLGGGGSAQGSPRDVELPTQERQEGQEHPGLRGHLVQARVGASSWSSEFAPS
structure (smiles),measurement,setting,value
"CCCn1c(=O)[nH]c2nc(C3CCCC3)[nH]c2c1=O [Compound 129, 8-cyclopentyl-1-propylX, reference compound]",Ki,[1]; [3],226 ± 37 nM
same,Ki,[2]; [4],48700 nM
"NCCNC(=O)[C@H]1O[C@@H](n2cnc3c(N)ncnc32)[C@H](O)[C@@H]1O [Compound 25, 5'-N-aminoethylaminocarboxamidoadenosine]",inhibition at 100 µM,[1]; [5],0%
same,inhibition at 100 µM,[2]; [6],12.5%
"O=c1[nH]c(=O)c2ncn([C@@H]3O[C@H](CO)[C@@H](O)[C@H]3O)c2[nH]1 [Compound 81, xanthosine, reference compound]",inhibition at 100 µM,[1]; [7],9.1 ± 2.4%
same,inhibition at 100 µM,[2]; [8],8.5 ± 2.5%
"CN(Cc1ccccc1)c1ncnc2c1ncn2[C@@H]1O[C@H](CO)[C@@H](O)[C@H]1O [Compound 30, N^6 -benzyl-N^6 -methyladenosine, reference compound]",Ki,[1]; [3],7600 nM
same,Ki,[2]; [4],40100 nM
"Nc1nc2c(ncn2[C@@H]2O[C@H](CO)[C@@H](O)[C@H]2O)c(=S)[nH]1 [Compound 88, 6-thioguanosine, reference compound]",inhibition at 100 µM,[1]; [7],44.2 ± 2.3%
same,inhibition at 100 µM,[2]; [8],27.7 ± 5.8%
"Nc1nc(SCc2ccc([N+](=O)[O-])cc2)c2ncn([C@@H]3O[C@H](CO)[C@@H](O)[C@H]3O)c2n1 [Compound 87, (4-nitrobenzyl)-6-thioguanosine, reference compound]",Ki,[1]; [3],15000 nM
same,Ki,[2]; [4],48500 nM
"Cn1c(=O)[nH]c2c(ncn2C)c1=O [Compound 105, 1,9-dimethylX, reference compound]",inhibition at 100 µM,[1]; [7],29.4 ± 1.6%
same,inhibition at 100 µM,[2]; [6],6 ± 6.3%
"CCCCn1c(=O)c2c(ncn2[C@@H]2O[C@H](CO)[C@@H](O)[C@H]2O)n(CCCC)c1=O [Compound 119, 1,3-di-n-butylxanthine-7-β-D-ribofuranoside]",Ki,[1]; [3],4190 nM
same,Ki,[2]; [4],19500 nM
"Cc1cn([C@H]2C[C@H](O)[C@@H](CO)O2)c(=O)[nH]c1=O [Compound 83, thymidine, reference compound]",inhibition at 100 µM,[1]; [7],23.4 ± 2.5%
same,inhibition at 100 µM,[2]; [6],1.7 ± 3.4%
"Nc1ncnc2c1ncn2[C@@H]1O[C@H](COP(=O)(O)O)[C@@H](O)[C@H]1O [Compound 78, adenosine-5'-monophosphate, reference compound]",Ki,[1],47500 ± 6500 nM
same,inhibition at 100 µM,[2]; [6],57.5 ± 4%
"Nc1ncnc2c1nc(Br)n2[C@@H]1O[C@H](CO)[C@@H](O)[C@H]1O [Compound 31, 8-bromoadenosine, reference compound]",inhibition at 100 µM,[1]; [5],41.5 ± 3.2%
same,Ki,[2]; [4],22700 nM
"CO[C@@H]1[C@H](O)[C@@H](CO)O[C@H]1n1cnc2c(N)ncnc21 [Compound 71, 2'-O-methyladenosine, reference compound]",inhibition at 100 µM,[1]; [7],29.4 ± 7.5%
same,inhibition at 100 µM,[2]; [8],49 ± 5%
"O=c1ccn([C@@H]2O[C@H](CO)[C@@H](O)[C@H]2O)c(=O)[nH]1 [Compound 82, uridine, reference compound]",inhibition at 100 µM,[1]; [7],14.3 ± 6.9%
same,inhibition at 100 µM,[2]; [6],2.8 ± 5.2%
"CNC(=O)[C@H]1O[C@@H](n2cnc3c(=O)[nH]cnc32)[C@H](O)[C@@H]1O [Compound 90, inosine-5'-N-methyluronamide]",inhibition at 100 µM,[1]; [7],0%
same,inhibition at 100 µM,[2]; [6],6.2 ± 4.2%
"CCCCCCn1c(=O)c2[nH]cnc2n(CCCCCC)c1=O [Compound 110, 1,3-dihexylX, reference compound]",Ki,[1]; [3],1260 nM
same,inhibition at 10 µM,[2]; [6],14.3 ± 3%
"CNC(=O)[C@H]1O[C@@H](n2cnc3c(NCc4ccc(S(=O)(=O)O)cc4)ncnc32)[C@H](O)[C@@H]1O [Compound 53, N^6-(4-sulfobenzyl)adenosine-5'-N-methyluronamide triethylammonium salt]",inhibition at 100 µM,[1]; [7],0%
same,inhibition at 100 µM,[2]; [6],0%
"CCNC(=O)[C@H]1O[C@@H](n2cnc3c(NCc4cccc(F)c4)ncnc32)[C@H](O)[C@@H]1O [Compound 57, N^6-(3-fluorobenzyl)adenosine-5'-N-ethyluronamide]",Ki,[1]; [3],51 ± 7 nM
same,Ki,[2]; [4],32 ± 4 nM
"COc1nc2c(c(=O)n(C)c(=O)n2C)n1[C@@H]1O[C@H](CO)[C@@H](O)[C@H]1O [Example 59, 8-methoxytheophylline-7-β-D-ribofuranoside]",inhibition at 100 µM,"[1]; Table 4, at 10^-4 M, read-out: percent displacement of radioligand at A1",21 ± 3%
same,inhibition at 100 µM,"[2]; Table 4, at 10^-4 M, read-out: percent displacement of radioligand at A2",4%
"CCCCn1c(=O)n(Cc2ccccc2)c(=O)c2c1ncn2[C@@H]1O[C@H](CO)[C@@H](O)[C@H]1O [Compound 120, 1-benzyl-3-butylxanthine-7-β-D-ribofuranoside]","potency increase at A1 and A2a receptors vs 1,3-di-n-butylxanthine-7-β-D-ribofuranoside",[1],2-4 fold
same,Ki,[1]; [9],2190 nM
same,Ki,"[2]; Table 4, [3H]CGS 21680, rat striatal membranes, read-out: Ki (A2)",8670 nM
same,Ki,[2]; [4],3800 nM
"Cn1cnc2[nH]c(=O)[nH]c(=O)c21 [Compound 101, 7-methylX, reference compound]",inhibition at 100 µM,[1]; [7],52.3 ± 7.9%
same,inhibition at 100 µM,[2]; [6],37.7 ± 4.9%
"NC(=O)[C@H]1O[C@@H](n2cnc3c(NCc4ccccc4)ncnc32)[C@H](O)[C@@H]1O [Compound 39, N^6-benzyl-5'-carboxamidoadenosine]",Ki,[1]; [3],580 ± 99 nM
same,Ki,[2]; [4],423 ± 46 nM
"C[C@H]1O[C@@H](n2cnc3c(N)ncnc32)[C@H](O)[C@@H]1O [Compound 73, 5'-deoxyadenosine, reference compound]",Ki,[1]; [3],269 ± 135 nM
same,Ki,[2]; [4],596 ± 54 nM
"Cn1c(=O)c2[nH]c(Cl)nc2n(C)c1=O [Compound 132, 8-chloroT, reference compound]",inhibition at 100 µM,[1]; [7],30.2 ± 6.7%
same,inhibition at 100 µM,[2]; [6],24.7 ± 3.9%
"OC[C@H]1O[C@@H](n2cnc3c(=S)[nH]cnc32)[C@H](O)[C@@H]1O [Compound 89, 6-thiopurine riboside, reference compound]",inhibition at 100 µM,[1]; [7],61.2 ± 3.9%
same,inhibition at 100 µM,[2]; [6],33.6 ± 3.3%
"CCNC(=O)[C@H]1O[C@@H](n2cnc3c(NCc4cccc(C)c4)ncnc32)[C@H](O)[C@@H]1O [Compound 64, N^6-(3-methylbenzyl)-NECA]",Ki,[1]; [3],36.5 ± 1.2 nM
same,Ki,[2]; [4],17.7 ± 1.8 nM
"Nc1ccn([C@@H]2O[C@H](CO)[C@@H](O)[C@H]2O)c(=O)n1 [Compound 84, cytidine, reference compound]",inhibition at 100 µM,[1]; [5],18 ± 1.2%
same,inhibition at 100 µM,[2]; [6],16 ± 1.5%
"CNC(=O)[C@H]1O[C@@H](n2cnc3c(NCc4cccc(S(=O)(=O)O)c4)ncnc32)[C@H](O)[C@@H]1O [Compound 52, N^6-(3-sulfobenzyl)-NMCA triethylammonium salt]",Ki,[1]; [3],> 10000 nM
same,Ki,[2]; [4],> 10000 nM
"CCNC(=O)[C@H]1O[C@@H](n2cnc3c(NCc4cccc(OC)c4)ncnc32)[C@H](O)[C@@H]1O [Compound 66, N^6-(3-methoxybenzyl)-NECA]",Ki,[1]; [3],69 ± 8 nM
same,Ki,[2]; [4],38 ± 6 nM
"[O-][n+]1cnc2c(ncn2[C@@H]2O[C@H](CO)[C@@H](O)[C@H]2O)c1NCc1ccccc1 [Compound 36, N^6 -benzyladenosine-N^1 -oxide]",Ki,[1]; [3],864 ± 88 nM
same,Ki,[2]; [4],8530 nM
"Nc1c2ncn([C@@H]3O[C@H](CO)[C@@H](O)[C@H]3O)c2nc[n+]1[O-] [Compound 34, adenosine-N^1 -oxide, reference compound]",Ki,[1],246 ± 31 nM
same,Ki,[2]; [4],328 ± 60 nM
"CC(C)CSC[C@H]1O[C@@H](n2cnc3c(N)ncnc32)[C@H](O)[C@@H]1O [Compound 76, 5'-deoxy-5'-isobutylthio adenosine, reference compound]",Ki,[1]; [3],1140 nM
same,Ki,[2]; [4],6890 nM
"Cn1cnc2c(=O)[nH]c(=O)n(C)c21 [Compound 107, 3,9-dimethylX, reference compound]",inhibition at 100 µM,[1]; [7],19.7 ± 7.9%
same,inhibition at 100 µM,[2]; [6],4.2 ± 5.9%
"Cn1c(=O)c2c(ncn2[C@@H]2O[C@H](CO)[C@@H](O)[C@H]2O)n(C)c1=O [Compound 117, theophylline-7-riboside, reference compound]",Ki,[1]; [9],27000 nM
same,inhibition at 100 µM,[2]; read-out: percent displacement of radioligand at A2,2%
"CCCCn1c(=O)c2c(ncn2[C@@H]2O[C@H](C(=O)NCC)[C@@H](O)[C@H]2O)n(CCCC)c1=O [Compound 126, N-ethyl 1,3-di-n-butylxanthine-7-β-D-ribofuronamide]",Ki,[1]; [3],7500 nM
same,Ki,[2]; [4],17000 nM
"CNC(=O)[C@H]1O[C@@H](n2cnc3c(NCc4cccc(I)c4)nc(NC)nc32)[C@H](O)[C@@H]1O [Example 45, N^6-(3-iodobenzyl)-2-methylamino-9-[5-(methylamido)-β-D-ribofuranosyl]-adenine]",Ki,"[1]; Table 2, [3H]PIA, rat brain membranes, read-out: Ki (A1)",4890 ± 2580 nM
same,Ki,"[2]; Table 2, [3H]CGS 21680, rat striatal membranes, read-out: Ki (A2)",4120 ± 210 nM
"Nc1nc2c(ncn2[C@@H]2O[C@H](CO)[C@@H](O)[C@H]2O)c(=O)[nH]1 [Compound 86, guanosine, reference compound]",Ki,[1]; [3],27800 nM
same,Ki,[2]; [4],8500 nM
"CNC(=O)[C@H]1O[C@@H](n2cnc3c(NCc4cccc(C)c4)ncnc32)[C@H](O)[C@@H]1O [Compound 46, N^6-(3-methylbenzyl)-NMCA]",Ki,[1]; [3],322 ± 23 nM
same,Ki,[2]; [4],415 ± 33 nM
"CCNC(=O)[C@H]1O[C@@H](n2cnc3c(=N)n(Cc4ccccc4[N+](=O)[O-])cnc32)[C@H](O)[C@@H]1O [Compound 38, N'-(2-nitrobenzyl)NECA]",Ki,[1]; [3],196 ± 52 nM
same,Ki,[2]; [4],83.5 ± 9.5 nM
"OC[C@H]1O[C@@H](n2cnc3c(O)ncnc32)[C@H](O)[C@@H]1O [Compound 85, inosine, reference compound]",Ki,[1]; [3],16700 nM
same,Ki,[2]; [4],50000 nM
"CNC(=O)[C@H]1O[C@@H](n2cnc3c(NCc4ccccc4)ncnc32)[C@H](O)[C@@H]1O [Compound 40, N^6-benzyladenosine-5'-N-methyluronamide]",Ki,[1]; [3],898 ± 124 nM
same,Ki,[2]; [4],597 ± 42 nM
